The source of these data is patent publication US20080096903A1, “SULFAMOYL-CONTAINING DERIVATIVES AND USES THEREOF” (Wyeth, priority 2006, published 2008).

Structures are written as SMILES. pIC50: −log10 of the molar value. Like-named read-outs stand apart in the source and are kept apart here.

Usually pIC50 stands for the negative decadic logarithm of the IC50, by convention in mol/L.

One assay deals with Hsp90α Protein (Homo sapiens, UniProt P07900). Briefly: Hsp90 CE Competitive Binding Assay (displacement of fluorescein-labelled geldanamycin). How it is done:
Hsp90 CE Competitive Binding Assay: […]
b) “Competitor”, fluorescein-labelled geldanamycin • The competitor was synthesized as described by Llauger-Bufi et al, Bioorg.
The electrophoresis running buffer (RB) is comprised of 200 mM CAPSO, pH 9.2 (pH-adjusted with Trizma base). The sample buffer (SB) is comprised of 10 mM Trizma base, pH 8.0 (pH-adjusted with glacial acetic acid), 5 mM MgCl2, 5 mM DTT, and BSA and Triton as noted.
Capillary electrophoresis was performed on Cetek Gemini Systems™ using laser-induced fluorescence detection. Fused-silica capillaries (50 μm I.D.×30 cm, approximately 10 cm length from end to detection window) were internally coated using Cetek's proprietary methods.
Each sample (i.e., fermentation extract, partially-purified fraction, or compound mixture, or pure compound) to be assayed is prediluted 1:20 or 1:40 in SB containing 0.02% Triton. 1 μl of each prediluted sample is then deposited into a 96-well microtiter plate and mixed with 8 μl of Target Cocktail. These samples can be stored at 4° C. until ready for assay.
When ready for analysis, the plates are transferred to the deck of a Gemini System. To each mixture of sample and target, 1 μl of Competitor Cocktail is added and mixed thoroughly. This reaction mixture is allowed to incubate for 8 minutes on the refrigerated deck of the Gemini System (temperature 8° C.). During incubation, the CE capillary is rinsed for 30 seconds with RB containing 2 mg/ml BSA, and then 60 seconds with RB. At the end of incubation, a small plug of the reaction mixture is then injected into the capillary at low pressure (0.5 psi) for 7 seconds. The loaded capillary is then dipped into reservoirs containing RB and the sample is electrophoresed at 10 kV for 6 minutes at a temperature of 8° C.
The electrophoretic separation produces a graphical profile known as an “electropherogram,” which contains a peak representing the intact complex between Hsp90 and competitor, and a smaller series (typically, a triplet) of peaks representing unbound competitor. […] Dose-response experiments, which evaluate the degree of competitor displacement as a function of sample concentration, are subsequently run in triplicate to validate hits and to quantitate their potencies, which are expressed as IC50 values.
Negative controls are comprised of 0.5% DMSO, and positive controls are comprised of 0.1 μg/ml 17-AAG.

The test system of assay [1] is Hsp90 (luciferase refolding, cancer cell lysate). Briefly: Luciferase Refolding Assay. In kind it is biochemical. The note with it: inhibition of luciferase refolding by Hsp90. As for the experimental part: Luciferase Refolding Assay
• A. Cancer cells are cultured according to ATCC guidelines. Cell lysates are prepared as follows to be used as source of heat shock proteins: Resuspend the washed cell pellet in 3˜10 packed cell volumes of Buffer A (10 mM HEPES pH 7.9, 1.5 mM MgCl2, 10 mM KCl, 0.5 mM DTT, and 0.2 mM PMSF). Spin at 2000 rpm for 5 minutes in GS-6R (Beckman) centrifuge, 4° C. and resuspend cells in Buffer A up to a final of 3 packed cell volumes (i.e., add ˜2 volumes). Incubate on ice for 10 minutes. Transfer the cells to a Wheaton A Dounce homogenizer and lyse with 10-25 strokes. Stain an aliquot with Trypan Blue and check for >90% lysis under microscope. Spin the homogenized mixture at 3000 rpm for 20 minutes in GS-6R (Beckman) centrifuge, 4° C., to pellet nuclei. To the cytoplasmic fraction (cell lysate), add 1 mM ATP, 14.3 mM creatine phosphate, 71 μg/ml phosphokinase, 3 mM DTT, 113 mM KAc, and 0.7 mM MgAc2. Aliquot into eppendorf tubes and freeze at −80° C. • B. Luciferase Stability Buffer (SB): 25 mM Tris-HCl, pH 7.8; 8 mM MgSO4; 0.1 mM EDTA; 10 mg/ml BSA; 10% Glycerol; 0.25% Triton X-100. Make 2×SB and store at −20° C. • C. Cell Lysate (CL) Buffer: Buffer A containing 1 mM ATP; 14.3 mM creatine phosphate; 71 ug/ml phosphokinase; 3 mM DTT; 113 mM KAc; and 0.7 mM MgAc2. • D. Luciferase: Promega E1701, 14.9 mg/ml=244 μM. Dilute 1:60 in 30 mM Tris-HCl, pH 7.4, 2 mM DTT, and 20% glycerol, resulting in a stock luciferase solution with concentration of 4 μM (250 ng/μl). • E. Luciferase substrate: Promega E1500. Procedure: • 1) Mix luciferase solution 1:1 with 2× SB buffer. Incubate at 42° C. for 8 min to denature. […] Data analysis: Luciferase refolding activity of a cell lysate sample with or without HSP90 inhibitor is represented as the net of luminescence reading from a cell lysate sample subtracting results from negative control (no cell lysate or heat shock proteins). Inhibition effect of a compound is calculated as the percentage of refolding activity relative to samples without any inhibitors in the cell lysate.
The ability of selected compounds of the invention to inhibit luciferase refolding by Hsp90 based on this assay is summarized in Table 14.

For assay [2], the system named is HER2/Neu protein in SK-OV-3 cells. Briefly: Hsp90 Client Protein Degradation Assay. The settings on record: for pIC50: Homo sapiens, 50% degradation of HER2/Neu protein, SK-OV-3 cells, overnight. It counts as cell-based. How it is done:
Hsp90 Client Protein Degradation Assay
SK-OV-3 cells were obtained from ATCC (Rockville, Md.) and maintained in McCoy's 5A Media with 10% Fetal Bovine Serum (ATCC) at 37° C. with 5% CO2 in humidified incubators. Cells were plated at 2 ml per well at 100,000 cells/ml in six well dishes. Cells were incubated overnight at 37° C. and given test agent compound the following day in a titrated series. Cell incubation in the presence of compound proceeded overnight at 37° with 5% CO2 in media in the presence of serum. The following day media was aspirated and cells washed on plate with 2 mls of cold D-PBS. 100 ul of 1× Laemli's buffer was added to each well and total protein obtained by scraping the cell pellet and removing to 1.5 ml Eppendorf tube on ice. Cells were further lysed and DNA was fragmented by sonication and cells debris pelleted at 14 K for 3 min at 4° C. 20 ul was loaded per well and fractionated on PAGE gels. Western analyses were performed using abs specifically for the Hsp90 client proteins HER-2 (Santa Cruz Biotech, Santa Cruz, Calif.) and c-raf-1 (Cell Signaling Technology, Danvers, Mass.). Loading per well was controlled by testing for g-actin on Western Blots (Cell Signaling Technology) simultaneous to testing for HER-2 or c-raf-1. Detection was via a secondary antibody conjugated to Horse radish peroxidase (HRP) and enhanced chemiluminescent detection from Supersignal West Pico Detection Kits from Pierce (Rockford, Ill.). Autoradiography was via Kodak X-OMAT film and developing via a Kodak M35 film processor.

For the next assay, the system named is Human cancer cell lines. Briefly: Cancer-Derived Cell Line Growth Inhibition Assays. It counts as cell-based. The settings on record: 72 h, 3 days, Cell Titer Blue. As for the experimental part: Cancer-Derived Cell Line Growth Inhibition Assays
Human cancer cell lines were obtained from ATCC (Rockville, Md.) and maintained according to their media specifications at 37° C. in humidified incubators with or without 5% CO2. Cells were plated at 0.1 ml/well of 50,000 cells per ml in 96 well plates. Monolayer grown cells were incubated overnight prior to the addition of compound while cells grown in suspension are given compound on the same day as plating. The test agent is titrated in duplicate for each compound and concentration tested. Cells are incubated in the presence of compound at 37° C. in humidified incubators for 3 days prior to addition of 20 ul of Cell Titer Blue (Promega, Madison, Wis.) which quantifies total cellular metabolic activity by conversion of resazurin to resorufin. Cell titer blue measures metabolic activity by quantifying the amount of biological activity present in a well using reduction of the dye resazurin as an end-point metric. Cells then are allowed to incubate at 37° C. for 2 hours and then analyzed using a Bio-TEK (Winooski, Vt.) Synergy HT 96/384 well plate reader set for 530 nm/590 nm, Ex/Em. Data analysis and depiction is conducted using EXCEL.
(In general: The colour change of resazurin is a common sign of viable cells or microbes.)

Setting [3] is: initial structure activity relationship table, read-out: HSP90 CE IC50.
Setting [4] is: Table 14, inhibition of binding of labeled geldanamycin to Hsp90, read-out: CE IC50.
Where [5] appears, read: versus corresponding alcohol (R═H).

`Nc1ncnc2c1ncn2C1OC(COP(=O)(O)O)C(O)C1O` (centres unmarked) [AMP, reference compound]: the pIC50 on Hsp90α Protein (setting [3]) was below 3.84.

With `Nc1nc(F)nc2c1nc(Cc1cc3c(cc1I)OCO3)n2CCOS(N)(=O)=O` [Example 1, Sulfamic Acid 2-[6-amino-2-fluoro-8-(6-iodo-benzo[1,3]dioxol-5-ylmethyl)-purin-9-yl]-ethyl ester], the pIC50 at Hsp90α Protein (setting [4]) was above 7.40; in assay [1] it was above 6.00; in assay [2], above 5.52; with Human cancer cell lines, above 5.30.

In the case of `Nc1nc(F)nc2c1nc(Cc1cc3c(cc1I)OCO3)n2CCCOS(N)(=O)=O` [Example 2, Sulfamic Acid 3-[6-Amino-2-fluoro-8-(6-iodo-benzo[1,3]dioxol-5-ylmethyl)-purin-9-yl]-propyl ester], the pIC50 at Hsp90α Protein (setting [4]) was above 7.40; in assay [1], above 6.00; in assay [2] it was above 5.52; in the assay on Human cancer cell lines it was above 5.30.

As for `Nc1nc(F)nc2c1nc(Cc1cc3c(cc1I)OCO3)n2CCCCCOS(N)(=O)=O` [Example 4, Sulfamic Acid 5-[6-amino-2-fluoro-8-(6-iodo-benzo[1,3]dioxol-5-ylmethyl)-purin-9-yl]-pentyl ester], the pIC50 on Hsp90α Protein (setting [4]) is above 7.40; in assay [1], above 6.00; in assay [2], above 5.52; in the assay with Human cancer cell lines, above 5.30.

`Nc1nc(F)nc2c1nc(Cc1cc3c(cc1I)OCO3)n2CCCCCCOS(N)(=O)=O` [Example 5, Sulfamic Acid 6-[6-amino-2-fluoro-8-(6-iodo-benzo[1,3]dioxol-5-ylmethyl)-purin-9-yl]-hexyl ester]: the pIC50 is above 7.40 at Hsp90α Protein (setting [4]), above 6.00 in assay [1], above 5.52 in assay [2] and above 5.30 in the assay on Human cancer cell lines. In addition, at Hsp90α Protein (setting [5]), the “more activity than the corresponding alcohol (R═H), CE Hsp90 assay” value was 35 fold. Moreover, the “more activity than the corresponding alcohol (R═H), client protein assay” value in assay [2] (setting [5]) is given as 16 fold.

On to `Nc1nc(F)nc2c1nc(Cc1cc3c(cc1I)OCO3)n2CCCCCCCOS(N)(=O)=O` [Example 6, Sulfamic Acid 7-[6-amino-2-fluoro-8-(6-iodo-benzo[1,3]dioxol-5-ylmethyl)-purin-9-yl]-heptyl ester], for which the negative logarithm of the IC50 (pIC50) on Hsp90α Protein (setting [4]) was above 7.40; in assay [1], above 6.00; in assay [2], above 5.52; in the assay with Human cancer cell lines, above 5.30.

As for `Nc1nc(F)nc2c1nc(Cc1cc3c(cc1I)OCO3)n2CCCCCCCCOS(N)(=O)=O` [Example 7, Sulfamic Acid 8-[6-amino-2-fluoro-8-(6-iodo-benzo[1,3]dioxol-5-ylmethyl)-purin-9-yl]-octyl ester], the pIC50 is above 5.70 on Hsp90α Protein (setting [4]), above 4.30 in assay [2] and above 4.00 in the assay on Human cancer cell lines.

Turning to `Nc1nc(F)nc2c1nc(Cc1cc3c(cc1I)OCO3)n2CCOCCOS(N)(=O)=O` [Example 8, Sulfamic Acid 2-{2-[6-amino-2-fluoro-8-(6-iodo-benzo[1,3]dioxol-5-ylmethyl)-purin-9-yl]-ethoxy}-ethyl ester], the pIC50 on Hsp90α Protein (setting [4]) is above 7.40; in assay [1], above 6.00; in assay [2], above 5.52; in the assay with Human cancer cell lines it was above 5.30.

In the case of `Nc1nc(F)nc2c1nc(Cc1cc3c(cc1I)OCO3)n2CCOCCCOS(N)(=O)=O` [Example 9, Sulfamic Acid 3-{2-[6-amino-2-fluoro-8-(6-iodo-benzo[1,3]dioxol-5-ylmethyl)-purin-9-yl]-ethoxy}-propyl ester], the negative logarithm of the IC50 (pIC50) at Hsp90α Protein (setting [4]) was above 7.40; in assay [1], above 6.00; in assay [2], above 5.52; in the assay with Human cancer cell lines it was above 5.30.

Consider `Nc1nc(F)nc2c1nc(Cc1cc3c(cc1I)OCO3)n2CCOCCCCOS(N)(=O)=O` [Example 10, Sulfamic Acid 4-{2-[6-amino-2-fluoro-8-(6-iodo-benzo[1,3]dioxol-5-ylmethyl)-purin-9-yl]-ethoxy}-butyl ester], for which the pIC50 on Hsp90α Protein (setting [4]) is above 7.40; in assay [1], above 6.00; in assay [2], above 5.52; in the assay with Human cancer cell lines it was above 5.30.

Regarding `Nc1nc(F)nc2c1ncn2C1OC(COS(N)(=O)=O)C(O)C1O` (centres unmarked) [FSA, reference compound], the pIC50 on Hsp90α Protein (setting [3]) is 6.15.

As for `Nc1nc(F)nc2c1ncn2C1OC(CO)C(O)C1O` (centres unmarked) [Fluoroadenosine (FA), Fluoroadenosine, reference compound], the negative-log IC50 (pIC50) on Hsp90α Protein is 4.66.

As to `Nc1nc(F)nc2[nH]c(Cc3cc4c(cc3I)OCO4)nc12` [Intermediate 5, 2-Fluoro-8-(6-iodo-benzo[1,3]dioxol-5-ylmethyl)-9H-purin-6-ylamine], the pIC50 was above 5.70 on Hsp90α Protein (setting [4]), above 5.30 in assay [1], above 4.30 in assay [2] and above 4.00 with Human cancer cell lines.
